{
  "source": "patent US9375001B1",
  "about": "“Granular fly bait” (Wellmark International, priority 2012, dated 2016)",
  "origin": "cited, not measured here",
  "note": "Where two headings read alike, the source gives them in different places.",
  "data": [
    {"smiles": "OC[C@H]1O[C@@](CO)(O[C@H]2O[C@H](CO)[C@@H](O)[C@H](O)[C@H]2O)[C@@H](O)[C@@H]1O", "note": "[Sucrose]", "values": [
      {"measurement": "Solubility of Sucrose in Water, Sucrose/water", "setting": "50 ° C.", "value": 2.59, "unit": "wt/wt"},
      {"measurement": "Solubility of Sucrose in Water, Sucrose/water", "setting": "55 ° C.", "value": 2.73, "unit": "wt/wt"},
      {"measurement": "Solubility of Sucrose in Water, Sucrose/water", "setting": "60 ° C.", "value": 2.89, "unit": "wt/wt"},
      {"measurement": "Solubility of Sucrose in Water, Sucrose/water", "setting": "65 ° C.", "value": 3.06, "unit": "wt/wt"},
      {"measurement": "Solubility of Sucrose in Water, Sucrose/water", "setting": "70 ° C.", "value": 3.25, "unit": "wt/wt"},
      {"measurement": "Solubility of Sucrose in Water, Sucrose/water", "setting": "75 ° C.", "value": 3.46, "unit": "wt/wt"},
      {"measurement": "Solubility of Sucrose in Water, Sucrose/water", "setting": "80 ° C.", "value": 3.69, "unit": "wt/wt"},
      {"measurement": "Solubility of Sucrose in Water, Sucrose/water", "setting": "85 ° C.", "value": 3.94, "unit": "wt/wt"},
      {"measurement": "Solubility of Sucrose in Water, Sucrose/water", "setting": "90 ° C.", "value": 4.20, "unit": "wt/wt"}
    ]}
  ]
}
